Test results as given in the NIST ThermoML archive (doi:10.1016/j.jct.2010.10.016).

Experiment: xn = mol fraction of the nth substance listed
Conditions: 101 kPa, Liquid; for viscosity: Capillary tube (Ostwald / Ubbelohde) method; for mass density: Pycnometric method; for speed of sound: Resonance method

C[N+](=O)[O-] [nitromethane] + COCCO
Conditions	mass density [kg/m3]	speed of sound [m/s]	viscosity [mPa·s]
293.15 K, x1 = 0.05	970.66	1354.7	–
293.15 K, x1 = 0.0501	–	–	1.618
293.15 K, x1 = 0.0998	976.62	1351.1	–
293.15 K, x1 = 0.1024	–	–	1.527
293.15 K, x1 = 0.2	989.24	1345	–
293.15 K, x1 = 0.2162	–	–	1.341
293.15 K, x1 = 0.2991	–	1340	–
293.15 K, x1 = 0.3	1002.64	–	–
293.15 K, x1 = 0.3003	–	–	1.216
293.15 K, x1 = 0.4	1017.06	1335.5	–
293.15 K, x1 = 0.4076	–	–	1.072
293.15 K, x1 = 0.451	–	–	1.02
293.15 K, x1 = 0.4997	–	–	0.964
293.15 K, x1 = 0.4998	–	1331.9	–
293.15 K, x1 = 0.5	1032.73	–	–
293.15 K, x1 = 0.55	–	–	0.91
293.15 K, x1 = 0.6	1049.94	1329.2	–
293.15 K, x1 = 0.6026	–	–	0.859
293.15 K, x1 = 0.6998	–	–	0.775
293.15 K, x1 = 0.7	1068.86	1327.7	–
293.15 K, x1 = 0.7991	–	–	0.71
293.15 K, x1 = 0.8	–	1327.5	–
293.15 K, x1 = 0.8002	1089.69	–	–
293.15 K, x1 = 0.8999	1112.46	1330.3	–
293.15 K, x1 = 0.9001	–	–	0.663
293.15 K, x1 = 0.941	–	–	0.653
293.15 K, x1 = 0.9503	1124.81	1333.7	–
293.15 K, x1 = 1	1137.63	1340.2	0.648
298.15 K, x1 = 0.05	965.94	1338.1	–
298.15 K, x1 = 0.0506	–	–	1.466
298.15 K, x1 = 0.0998	971.79	1334.8	–
298.15 K, x1 = 0.1037	–	–	1.387
298.15 K, x1 = 0.2	984.22	1329.2	–
298.15 K, x1 = 0.2002	–	–	1.249
298.15 K, x1 = 0.2991	–	1324.1	–
298.15 K, x1 = 0.3	997.42	–	–
298.15 K, x1 = 0.3006	–	–	1.118
298.15 K, x1 = 0.4	1011.62	1319.6	–
298.15 K, x1 = 0.4052	–	–	0.994
298.15 K, x1 = 0.4509	–	–	0.944
298.15 K, x1 = 0.4998	–	1315.6	–
298.15 K, x1 = 0.5	1027.07	–	–
298.15 K, x1 = 0.5016	–	–	0.892
298.15 K, x1 = 0.5497	–	–	0.846
298.15 K, x1 = 0.5991	–	–	0.8
298.15 K, x1 = 0.6	1044.03	1312.6	–
298.15 K, x1 = 0.694	–	–	0.725
298.15 K, x1 = 0.7	1062.69	1310.7	–
298.15 K, x1 = 0.7953	–	–	0.666
298.15 K, x1 = 0.8	–	1310.6	–
298.15 K, x1 = 0.8002	1083.23	–	–
298.15 K, x1 = 0.8997	–	–	0.629
298.15 K, x1 = 0.8999	1105.69	1312.9	–
298.15 K, x1 = 0.9454	–	–	0.621
298.15 K, x1 = 0.9503	1117.91	1315.8	–
298.15 K, x1 = 1	1130.62	1320.4	0.619
303.15 K, x1 = 0.05	961.25	–	–
303.15 K, x1 = 0.0585	–	–	1.328
303.15 K, x1 = 0.0998	966.98	–	–
303.15 K, x1 = 0.1015	–	–	1.271
303.15 K, x1 = 0.1989	–	–	1.149
303.15 K, x1 = 0.2	979.15	–	–
303.15 K, x1 = 0.3	992.16	–	–
303.15 K, x1 = 0.3091	–	–	1.02
303.15 K, x1 = 0.3978	–	–	0.925
303.15 K, x1 = 0.4	1006.16	–	–
303.15 K, x1 = 0.449	–	–	0.875
303.15 K, x1 = 0.4998	–	–	0.828
303.15 K, x1 = 0.5549	–	–	0.782
303.15 K, x1 = 0.59	–	–	0.756
303.15 K, x1 = 0.6977	–	–	0.684
303.15 K, x1 = 0.7979	–	–	0.632
303.15 K, x1 = 0.9037	–	–	0.594
303.15 K, x1 = 0.9508	–	–	0.585
303.15 K, x1 = 1	–	–	0.584
